Laboratory results from patent US20260083865A1, “PROSTATE SPECIFIC MEMBRANE ANTIGEN (PSMA) LIGANDS AND USE THEREOF” (priority 2022, published 2026).
Like-named read-outs stand apart in the source and are kept apart here. Numbered stars: 1 amine (or outer) side, 2 acyl side, 3 side chain; on linkers, the order of the positions; unused ones are H or OH. Bridge positions count the residues as written; N and C are the ends. Square brackets hold non-standard residues; d marks the D form. Side chains are listed from the residue outwards. Peptide text beside a SMILES is read from it. * marks the point of attachment. X3 = O=C(O)CN1CCN(CC(=O)O)CCN(CC(=O)NCCCOCCOCCOCCCN*)CCN(CC(=O)O)CC1; X2 = O=C(O)CN1CCN(CC(=O)O)CCN([C@H](CCC(=O)*)C(=O)O)CCN(CC(=O)O)CC1; DOTA = O=C(O)CN1CCN(CC(=O)O)CCN(CC(=O)*)CCN(CC(=O)O)CC1; Phe(4-Cl) = N[C@@H](Cc1ccc(Cl)cc1)C(=O)O; Ethylenediamine = C(CN[*:2])N[*:1]; X1 = O=C(CC1CCN([*:1])CC1)[*:2]; Cit = NC(=O)NCCC[C@H](N)C(=O)O; Suc = O=C(CCC(=O)[*:2])[*:1]; Tle = CC(C)(C)[C@H](N)C(=O)O; 4Amb = NCc1ccc(C(=O)O)cc1; Aib = CC(C)(N)C(=O)O; CO = O=C([*:1])[*:2]; βAla = NCCC(=O)O

Columns and labels:
PC3-PIP tumor model = system: PC3-PIP tumor model; set-up: species or system mice; details: mouse, in vivo
Description: Radioactively labeled compounds can be detected by imaging methods such as SPECT and PET. Furthermore, the data acquired by such techniques can be confirmed by direct measurement of radioactivity contained in the individual organs prepared from an animal injected with a radioactively labeled compound of the disclosure. Thus, the biodistribution (the measurement of radioactivity in individual organs) of a radioactively labeled compound can be determined and analyzed. […] All animal experiments were conducted in compliance with the German animal protection laws. Male swiss or NMRI nude mice (6-8 weeks old, Janvier Labs, France) were inoculated with 5×10^6 PC3-PIP cells in the right shoulder. For selected compounds an additional model was used, here male NMRI nude mice (6-8 weeks old, Janvier Labs, France) were inoculated with 5×10^6 or/1×10^7 C4-2 cells in the right shoulder. When tumors reached an appropriate size, the mice received ˜30 MBq ^111In-labeled compounds of the disclosure (diluted to 100 μL with PBS) administered intravenously via the tail vein. Images were obtained on a NanoSPECT/computed tomography system (Mediso Medical Imaging Systems, Budapest, Hungary) using exemplarily the following acquisition and reconstruction parameters (Table 10). [table] Imaging data were saved as DICOM files and analysed using VivoQuant™ software (Invicro, Boston, USA). In brief, regions of interest (ROIs) were drawn based on computed tomography images for the relevant organs and tissue regions such as heart (estimate of blood pool, bps), kidney, and tumor. The resulting numeric data expressed as a percentage of injected dose per gram of tissue (% ID/g) are presented in FIGS. 3(a)-3(ii) for the PC3-PIP model and FIGS. 4(a)-4(r) for the C4-2 model. Bars show mean % ID/g values of two to three animals per time point. Error bars indicate the value range (minimum and maximum values).

[1] = molecular target: T1, Fc-fusion protein of human PSMA (hPSMA-Fc) (Homo sapiens, UniProt Q04609); test: Surface plasmon resonance assay (Biacore T200, single cycle kinetic); type: binding; details: read-out: pKD CAT (converted)
T1 construct: purchased Acro Biosystems PSA-H5264
Method in brief: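 KD, expressed as pKD, came from 1:1 Langmuir fits of reference- and buffer-blank-subtracted SPR data. The runs were single-cycle kinetics at 25° C in HBST/0.1% DMSO over human PSMA-Fc, captured to ~1000 RU on a peptide-coated CM5 surface and regenerated with 10 mM glycine pH 1.5.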

[2] = molecular target: T2, PSMA-expressing C4-2 cells (Homo sapiens, UniProt Q04609); test: FACS binding assay (competition with 50 nM PSM-0183); details: read-out: pIC50 [C4-2] CAT (converted)
T2 construct: PSMA-expressing C4-2 cells (ATCC, Cat. No. CRL-3314) were cultured in RPMI-1640; host or cells: C4-2 cells
Method in brief: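 Competition format: fluorescent tracer PSM-0183 (50 nM) displaced from PSMA on C4-2 cells by a test compound titration over 1 h at 4 °C. Bound tracer was quantified as flow-cytometric AF488 median fluorescence after washing. Four-parameter logistic fits of MFI data gave IC50 and pIC50.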

[3] = PSMA SPR assay, hPSMA-Fc, 25° C., pKD category
[4] = FACS binding, PSMA-expressing C4-2 cells, pIC50 category
[5] = SPR, hPSMA-Fc, single cycle kinetic, 25° C., category
[6] = FACS binding, C4-2 cells, competition with 50 nM PSM-0183, category
[7] = pKD category for PSMA SPR activity assay, hPSMA-Fc, 25° C.
[8] = pIC50 category of FACS binding, C4-2 cells

T2 sequence (Q04609 whole entry): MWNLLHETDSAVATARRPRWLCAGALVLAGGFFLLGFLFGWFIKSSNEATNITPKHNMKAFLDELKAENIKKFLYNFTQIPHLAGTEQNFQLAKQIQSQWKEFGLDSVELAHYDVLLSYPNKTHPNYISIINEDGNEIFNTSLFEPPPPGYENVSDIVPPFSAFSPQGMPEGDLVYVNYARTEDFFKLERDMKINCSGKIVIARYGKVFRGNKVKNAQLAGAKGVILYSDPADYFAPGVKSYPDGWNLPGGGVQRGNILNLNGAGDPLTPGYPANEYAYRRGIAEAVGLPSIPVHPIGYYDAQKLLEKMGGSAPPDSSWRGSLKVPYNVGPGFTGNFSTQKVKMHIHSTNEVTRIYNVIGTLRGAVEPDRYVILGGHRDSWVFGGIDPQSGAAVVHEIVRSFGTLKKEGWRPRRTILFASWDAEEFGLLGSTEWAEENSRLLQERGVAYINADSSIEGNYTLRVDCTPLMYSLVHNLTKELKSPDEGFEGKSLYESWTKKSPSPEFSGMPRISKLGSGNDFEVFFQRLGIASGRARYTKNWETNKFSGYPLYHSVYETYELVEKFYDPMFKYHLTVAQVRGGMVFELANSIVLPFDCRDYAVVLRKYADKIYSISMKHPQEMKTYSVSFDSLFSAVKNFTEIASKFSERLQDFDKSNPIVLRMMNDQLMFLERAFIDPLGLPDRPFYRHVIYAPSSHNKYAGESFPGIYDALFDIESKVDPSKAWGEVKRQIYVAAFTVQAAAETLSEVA
T1 sequence (Q04609 44-750 limits assumed): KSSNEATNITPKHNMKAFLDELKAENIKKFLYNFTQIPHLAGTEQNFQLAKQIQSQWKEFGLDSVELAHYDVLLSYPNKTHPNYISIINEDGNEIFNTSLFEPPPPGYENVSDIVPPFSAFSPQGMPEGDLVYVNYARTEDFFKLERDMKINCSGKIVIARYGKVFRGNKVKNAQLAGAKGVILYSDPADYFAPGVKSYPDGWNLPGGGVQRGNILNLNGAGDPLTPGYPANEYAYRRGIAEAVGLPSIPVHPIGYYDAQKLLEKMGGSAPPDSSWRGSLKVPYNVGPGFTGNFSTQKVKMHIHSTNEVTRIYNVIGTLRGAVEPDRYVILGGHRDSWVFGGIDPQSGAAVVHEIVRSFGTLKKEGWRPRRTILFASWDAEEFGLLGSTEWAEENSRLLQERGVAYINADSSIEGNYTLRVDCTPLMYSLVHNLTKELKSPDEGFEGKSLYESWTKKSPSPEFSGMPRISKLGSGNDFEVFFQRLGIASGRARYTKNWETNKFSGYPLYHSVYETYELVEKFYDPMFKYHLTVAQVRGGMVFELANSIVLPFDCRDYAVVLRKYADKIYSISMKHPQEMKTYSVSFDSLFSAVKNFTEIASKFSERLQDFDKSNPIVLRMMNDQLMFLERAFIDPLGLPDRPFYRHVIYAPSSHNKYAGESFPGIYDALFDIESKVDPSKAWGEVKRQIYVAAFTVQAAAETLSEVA

SMILES	AUC ratio [T/K] (PC3-PIP tumor model)	Tumor AUC (PC3-PIP tumor model) [% ID/g*h]	Kd [1, 3] [nM]	IC50 [2, 4] [nM]	Kd [1, 5] [nM]	IC50 [2, 6] [nM]	Kd [1, 7] [nM]	IC50 [2, 8] [nM]	Kd ([1]; PSMA SPR assay, category) [nM]	IC50 ([2]; FACS binding, C4-2 cells, category) [nM]
CC(=O)N[C@H](C(=O)NC(C)(C)C(=O)N[C@@H](Cc1ccccc1)C(=O)N[C@H]1CSSC[C@@H](C(=O)N[C@H](C(=O)N[C@H](C(=O)N2CCC(CC(=O)N[C@H](CCCCNC(=O)CC[C@H](C(=O)O)N3CCN(CC(=O)O)CCN(CC(=O)O)CCN(CC(=O)O)CC3)C(N)=O)CC2)[C@@H](C)O)C(C)(C)C)NC(=O)[C@H](CC(N)=O)NC(=O)C(C)(C)NC(=O)[C@H](CCCNC(=N)N)NC(=O)[C@H](CCCCN)NC1=O)[C@@H](C)O [PSM-0339, Ac-Thr-Aib-Phe-[Cys-Lys-Arg-Aib-Asn-Cys]-Tle-Thr-Cmp-lys (DOTAGA)-NH2] (Ac-T[Aib]FCKR[Aib]NC[Tle]T[X1][dK](X2)-NH2; disulfide 4-9)	1.2	160	< 12.6	< 200						
C[C@@H](O)[C@H](NC(=O)[C@@H](NC(=O)[C@@H]1CSSC[C@H](NC(=O)[C@H](Cc2ccccc2)NC(=O)C(C)(C)NC(=O)[C@@H](NC(=O)CCC(=O)NCCCOCCOCCOCCCNC(=O)CN2CCN(CC(=O)O)CCN(CC(=O)O)CCN(CC(=O)O)CC2)[C@@H](C)O)C(=O)N[C@@H](CCCCN)C(=O)N[C@@H](CCCNC(N)=O)C(=O)NC(C)(C)C(=O)N[C@@H](CC(N)=O)C(=O)N1)C(C)(C)C)C(N)=O [PSM-0234, DOTA-Ttds-Thr-Aib-Phe-[Cys-Lys-Cit-Aib-Asn-Cys]-Tle-Thr-NH2] ({X3-Suc}-T[Aib]FCK[Cit][Aib]NC[Tle]T-NH2; disulfide 4-9)	0.64	62			12.6 to 126	200 to 1260				
C[C@@H](O)[C@H](NC(=O)CC1CCN(C(=O)CN2CCN(CC(=O)O)CCN(CC(=O)O)CCN(CC(=O)O)CC2)CC1)C(=O)NC(C)(C)C(=O)N[C@@H](Cc1ccc(Cl)cc1)C(=O)N[C@H]1CSSC[C@@H](C(=O)N[C@H](C(=O)NCCC(N)=O)C(C)(C)C)NC(=O)[C@H](CC(N)=O)NC(=O)C(C)(C)NC(=O)[C@H](CCCNC(=N)N)NC(=O)[C@H](CCCCN)NC1=O [PSM-0467, DOTA-Cmp-Thr-Aib-Pcf-[Cys-Lys-Arg-Aib-Asn-Cys]-Tle-Bal-NH2] ({DOTA}-[X1]T[Aib][Phe(4-Cl)]CKR[Aib]NC[Tle][βAla]-NH2; disulfide 5-10)	1.3	280					< 12.6	< 200		
CC(C)(NC(=O)c1ccc(CNC(=O)CN2CCN(CC(=O)O)CCN(CC(=O)O)CCN(CC(=O)O)CC2)cc1)C(=O)N[C@@H](Cc1ccc(Cl)cc1)C(=O)N[C@H]1CSSC[C@@H](C(=O)N[C@H](C(=O)NCCN)C(C)(C)C)NC(=O)[C@H](CC(N)=O)NC(=O)C(C)(C)NC(=O)[C@H](CCCNC(=N)N)NC(=O)[C@H](CCCCN)NC1=O [PSM-0273, DOTA-Pamb-Aib-Pcf-[Cys-Lys-Arg-Aib-Asn-Cys]-Tle-en] ({DOTA-4Amb}-[Aib][Phe(4-Cl)]CKR[Aib]NC[Tle]-Ethylenediamine; disulfide 3-8)	0.21	110	< 12.6	< 200						
C[C@@H](O)[C@H](NC(=O)[C@@H](NC(=O)[C@@H]1CSSC[C@H](NC(=O)[C@H](Cc2ccccc2)NC(=O)C(C)(C)NC(=O)[C@@H](NC(=O)CC2CCN(C(=O)CC[C@H](C(=O)O)N3CCN(CC(=O)O)CCN(CC(=O)O)CCN(CC(=O)O)CC3)CC2)[C@@H](C)O)C(=O)N[C@@H](CCCCN)C(=O)N[C@@H](CCCNC(=N)N)C(=O)NC(C)(C)C(=O)N[C@@H](CC(N)=O)C(=O)N1)C(C)(C)C)C(N)=O [PSM-0218, DOTAGA-Cmp-Thr-Aib-Phe-[Cys-Lys-Arg-Aib-Asn-Cys]-Tle-Thr-NH2] (X2-[X1]T[Aib]FCKR[Aib]NC[Tle]T-NH2; disulfide 5-10)	1.2	150			< 12.6	< 200				
C[C@@H](O)[C@H](NC(=O)[C@@H](NC(=O)[C@@H]1CSSC[C@H](NC(=O)[C@H](Cc2ccc(Cl)cc2)NC(=O)C(C)(C)NC(=O)c2ccc(CNC(=O)CN3CCN(CC(=O)O)CCN(CC(=O)O)CCN(CC(=O)O)CC3)cc2)C(=O)N[C@@H](CCCCN)C(=O)N[C@@H](CCCNC(=N)N)C(=O)NC(C)(C)C(=O)N[C@@H](CC(N)=O)C(=O)N1)C(C)(C)C)C(N)=O [PSM-0283, DOTA-Pamb-Aib-Pcf-[Cys-Lys-Arg-Aib-Asn-Cys]-Tle-Thr-NH2] ({DOTA-4Amb}-[Aib][Phe(4-Cl)]CKR[Aib]NC[Tle]T-NH2; disulfide 3-8)	1.6	200	< 12.6	< 200						
C[C@@H](O)[C@H](NC(=O)CN1CCN(CC(=O)O)CCN(CC(=O)O)CCN(CC(=O)O)CC1)C(=O)NC(C)(C)C(=O)N[C@@H](Cc1ccc(Cl)cc1)C(=O)N[C@H]1CSSC[C@@H](C(=O)N[C@H](C(N)=O)C(C)(C)C)NC(=O)[C@H](CC(N)=O)NC(=O)C(C)(C)NC(=O)[C@H](CCCNC(=N)N)NC(=O)[C@H](CCCCN)NC1=O [PSM-0534, DOTA-Thr-Aib-Pcf-[Cys-Lys-Arg-Aib-Asn-Cys]-Tle-NH2] ({DOTA}-T[Aib][Phe(4-Cl)]CKR[Aib]NC[Tle]-NH2; disulfide 4-9)	1.1	220					< 12.6	< 200		
C[C@@H](O)[C@H](NC(=O)CC1CCN(C(=O)CN2CCN(CC(=O)O)CCN(CC(=O)O)CCN(CC(=O)O)CC2)CC1)C(=O)NC(C)(C)C(=O)N[C@@H](Cc1ccc(Cl)cc1)C(=O)N[C@H]1CSSC[C@@H](C(=O)N[C@H](C(N)=O)C(C)(C)C)NC(=O)[C@H](CC(N)=O)NC(=O)C(C)(C)NC(=O)[C@H](CCCNC(=N)N)NC(=O)[C@H](CCCCN)NC1=O [PSM-0433, DOTA-Cmp-Thr-Aib-Pcf-[Cys-Lys-Arg-Aib-Asn-Cys]-Tle-NH2] ({DOTA}-[X1]T[Aib][Phe(4-Cl)]CKR[Aib]NC[Tle]-NH2; disulfide 5-10)	1.7	270					< 12.6	< 200		
C[C@@H](O)[C@H](NC(=O)CC1CCN(C(=O)CN2CCN(CC(=O)O)CCN(CC(=O)O)CCN(CC(=O)O)CC2)CC1)C(=O)NC(C)(C)C(=O)N[C@@H](Cc1ccccc1)C(=O)N[C@H]1CSSC[C@@H](C(=O)N[C@H](C(=O)NCCC(N)=O)C(C)(C)C)NC(=O)[C@H](CC(N)=O)NC(=O)C(C)(C)NC(=O)[C@H](CCCNC(=N)N)NC(=O)[C@H](CCCCN)NC1=O [PSM-0449, DOTA-Cmp-Thr-Aib-Pho-[Cys-Lys-Arg-Aib-Asn-Cys]-Tle-Bal-NH2] ({DOTA}-[X1]T[Aib]FCKR[Aib]NC[Tle][βAla]-NH2; disulfide 5-10)	1.4	220					< 12.6	< 200		
CCNC(=O)NC(=N)NCCC[C@@H]1NC(=O)[C@H](CCCCN)NC(=O)[C@@H](NC(=O)[C@H](Cc2ccc(Cl)cc2)NC(=O)C(C)(C)NC(=O)[C@@H](NC(=O)CC2CCN(C(=O)CN3CCN(CC(=O)O)CCN(CC(=O)O)CCN(CC(=O)O)CC3)CC2)[C@@H](C)O)CSSC[C@@H](C(=O)N[C@H](C(=O)N[C@H](C(N)=O)[C@@H](C)O)C(C)(C)C)NC(=O)[C@H](CC(N)=O)NC(=O)C(C)(C)NC1=O [PSM-0579, DOTA-Cmp-Thr-Aib-Pcf-[Cys-Lys-Arg(EtCAyl)-Aib-Asn-Cys]-Tle-Thr-NH2] ({DOTA}-[X1]T[Aib][Phe(4-Cl)]CKR([CO-NHEt])[Aib]NC[Tle]T-NH2; disulfide 5-10)	0.6	110							< 12.6	< 200
